Experiments:
[1] = target: Serine/threonine-protein kinase MARK2 (Homo sapiens) (UniProt Q7KZI7); assay: Inhibition of human full length MARK2 expressed in baculovirus assessed as substrate phosphorylation using fluorescence-labelled peptides as substrate at 9 uM after 90 mins by microfluidic peptide phosphorylation assay
[2] = target: Vascular endothelial growth factor receptor 2 (Homo sapiens) (UniProt P35968); assay: Inhibition of human KDR cytoplasmic domain expressed in baculovirus assessed as substrate phosphorylation using fluorescence-labelled peptides as substrate at 0.06 uM after 90 mins by microfluidic peptide phosphorylation assay
Vascular endothelial growth factor receptor 2 (Homo sapiens), sequence (P35968 whole entry, the tested form may be a part): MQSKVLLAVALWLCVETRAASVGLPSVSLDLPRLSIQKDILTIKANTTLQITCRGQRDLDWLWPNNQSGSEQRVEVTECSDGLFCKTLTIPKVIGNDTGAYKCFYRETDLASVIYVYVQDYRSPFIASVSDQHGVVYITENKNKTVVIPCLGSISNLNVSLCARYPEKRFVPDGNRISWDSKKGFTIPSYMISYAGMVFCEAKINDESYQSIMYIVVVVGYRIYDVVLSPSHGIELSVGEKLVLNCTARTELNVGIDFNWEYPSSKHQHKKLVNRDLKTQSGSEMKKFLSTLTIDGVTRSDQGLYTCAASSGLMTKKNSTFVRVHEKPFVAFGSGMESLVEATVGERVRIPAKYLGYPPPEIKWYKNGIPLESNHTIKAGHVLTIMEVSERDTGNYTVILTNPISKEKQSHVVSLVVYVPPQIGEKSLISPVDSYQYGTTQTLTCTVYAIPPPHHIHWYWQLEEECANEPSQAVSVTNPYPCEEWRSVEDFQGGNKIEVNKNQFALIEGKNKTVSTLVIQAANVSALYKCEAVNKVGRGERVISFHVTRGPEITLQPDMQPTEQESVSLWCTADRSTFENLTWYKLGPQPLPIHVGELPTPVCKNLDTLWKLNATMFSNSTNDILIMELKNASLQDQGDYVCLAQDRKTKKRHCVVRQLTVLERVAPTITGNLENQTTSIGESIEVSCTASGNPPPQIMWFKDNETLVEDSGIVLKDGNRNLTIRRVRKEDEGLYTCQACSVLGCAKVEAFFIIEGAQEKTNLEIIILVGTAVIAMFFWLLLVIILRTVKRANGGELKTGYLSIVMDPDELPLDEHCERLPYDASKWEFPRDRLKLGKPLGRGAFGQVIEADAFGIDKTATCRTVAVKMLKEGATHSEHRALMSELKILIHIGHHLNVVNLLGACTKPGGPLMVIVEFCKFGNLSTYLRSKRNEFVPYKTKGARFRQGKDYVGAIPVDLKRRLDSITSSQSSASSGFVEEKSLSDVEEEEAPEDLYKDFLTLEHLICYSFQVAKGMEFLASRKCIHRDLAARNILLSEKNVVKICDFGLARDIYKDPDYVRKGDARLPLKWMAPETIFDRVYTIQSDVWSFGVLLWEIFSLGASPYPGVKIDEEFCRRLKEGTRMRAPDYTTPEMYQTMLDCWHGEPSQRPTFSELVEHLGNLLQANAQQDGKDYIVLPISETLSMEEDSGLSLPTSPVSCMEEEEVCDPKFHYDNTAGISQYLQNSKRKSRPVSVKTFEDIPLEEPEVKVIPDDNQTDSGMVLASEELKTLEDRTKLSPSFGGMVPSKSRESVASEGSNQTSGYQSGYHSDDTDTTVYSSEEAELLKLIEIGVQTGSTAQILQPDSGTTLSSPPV

[3] = target: T1, Mitogen-activated protein kinase 12 (Homo sapiens) (UniProt P53778); assay: Inhibition of human full length p38 gamma expressed in Escherichia coli cell assessed as substrate phosphorylation using fluorescence-labelled peptides as substrate at […] after 90 mins by microfluidic peptide phosphorylation assay
T1 sequence (whole entry): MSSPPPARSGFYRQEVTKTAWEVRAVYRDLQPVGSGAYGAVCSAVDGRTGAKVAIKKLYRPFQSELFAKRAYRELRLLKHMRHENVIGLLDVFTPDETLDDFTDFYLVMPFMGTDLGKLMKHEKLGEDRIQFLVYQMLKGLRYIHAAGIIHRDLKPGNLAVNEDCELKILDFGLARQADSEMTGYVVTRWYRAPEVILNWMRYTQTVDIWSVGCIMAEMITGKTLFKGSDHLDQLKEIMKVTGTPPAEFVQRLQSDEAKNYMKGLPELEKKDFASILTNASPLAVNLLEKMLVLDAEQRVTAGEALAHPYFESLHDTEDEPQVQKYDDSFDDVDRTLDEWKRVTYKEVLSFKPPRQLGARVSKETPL

[4] = target: Mitogen-activated protein kinase 14 (Homo sapiens) (UniProt Q16539); assay: Inhibition of human truncated p38 alpha expressed in Escherichia coli cell assessed as substrate phosphorylation using fluorescence-labelled peptides as substrate at […] after 90 mins by microfluidic peptide phosphorylation assay
Mitogen-activated protein kinase 14 (Homo sapiens), sequence (Q16539 whole entry, the tested form may be a part): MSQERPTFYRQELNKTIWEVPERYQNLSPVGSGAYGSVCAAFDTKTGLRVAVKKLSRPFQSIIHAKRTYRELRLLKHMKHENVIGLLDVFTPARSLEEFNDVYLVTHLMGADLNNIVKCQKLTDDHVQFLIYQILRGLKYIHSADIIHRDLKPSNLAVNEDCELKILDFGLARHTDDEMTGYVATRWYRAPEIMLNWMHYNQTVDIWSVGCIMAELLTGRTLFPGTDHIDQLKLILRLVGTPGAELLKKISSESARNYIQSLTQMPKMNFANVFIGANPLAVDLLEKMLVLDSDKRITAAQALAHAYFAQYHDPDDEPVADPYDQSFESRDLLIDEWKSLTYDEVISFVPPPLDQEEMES

Serine/threonine-protein kinase MARK2 (Homo sapiens), sequence (Q7KZI7 whole entry, the tested form may be a part): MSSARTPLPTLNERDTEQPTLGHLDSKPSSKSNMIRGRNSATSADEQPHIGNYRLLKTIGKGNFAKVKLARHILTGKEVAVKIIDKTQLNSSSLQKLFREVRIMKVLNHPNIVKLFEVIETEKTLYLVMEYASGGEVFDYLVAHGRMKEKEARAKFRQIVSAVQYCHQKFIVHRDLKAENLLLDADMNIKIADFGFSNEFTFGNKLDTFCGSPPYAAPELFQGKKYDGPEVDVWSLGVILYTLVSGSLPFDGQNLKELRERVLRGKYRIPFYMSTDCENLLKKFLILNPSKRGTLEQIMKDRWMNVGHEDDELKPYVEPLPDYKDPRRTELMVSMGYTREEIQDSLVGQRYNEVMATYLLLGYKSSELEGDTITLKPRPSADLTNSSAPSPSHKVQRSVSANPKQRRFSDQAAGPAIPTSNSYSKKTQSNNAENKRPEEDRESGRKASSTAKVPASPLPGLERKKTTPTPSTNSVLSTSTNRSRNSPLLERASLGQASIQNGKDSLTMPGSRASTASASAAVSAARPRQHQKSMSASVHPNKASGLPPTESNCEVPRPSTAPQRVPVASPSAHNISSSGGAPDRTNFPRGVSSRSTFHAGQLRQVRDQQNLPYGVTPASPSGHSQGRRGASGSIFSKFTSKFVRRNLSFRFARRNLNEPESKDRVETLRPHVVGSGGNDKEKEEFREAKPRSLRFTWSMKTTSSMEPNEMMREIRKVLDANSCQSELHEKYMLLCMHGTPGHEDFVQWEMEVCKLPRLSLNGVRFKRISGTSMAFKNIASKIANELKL

**Q.** With `NCC1CN(c2ncnc3[nH]c4cnccc4c23)CCO1` (centres undefined) as the molecule, how does the inhibition [1] read?
**A.** The inhibition was 73%.

**Q.** For `NC1(Cc2ccc(Cl)cc2)CCN(c2ncnc3[nH]ccc23)CC1`, which inhibition [2] is on record?
**A.** Its inhibition is 0%.

**Q.** Which inhibition [3] does the source give for `COC(=O)c1cnc(Nc2cnc(C#N)cn2)cc1NCC1CCNCC1` here?
**A.** Its inhibition is 1.5%.

**Q.** What about the inhibition [4] of the same molecule?
**A.** Its inhibition is 2%.

Reference: ChEMBL document CHEMBL3132769, “Fragment growing to retain or alter the selectivity of anchored kinase hinge-binding fragments” (Medchemcomm, 2014)
